The test system of this assay is CD-1 mice. Briefly: Luciferase expression in organs after intravenous injection of pCILuc complexes. Format: in vivo. The note with it: for Luciferase RLU/20 μl lysate heart / Luciferase RLU/20 μl lysate kidney / Luciferase RLU/20 μl lysate liver / Luciferase RLU/20 μl lysate lung / Luciferase RLU/20 μl lysate spleen: 40 μg pCILuc i.v., 5 h; for Luciferase activity heart / Luciferase activity kidney / Luciferase activity liver / Luciferase activity lung / Luciferase activity spleen: Table 5. How it is done: Substituted aminoethanols (cationic compounds) were prepared as described in Examples 1-34. Their gene delivery ability was studied in vivo by intravenous injection (Table 1 and 2) using a standard method. The preparations were administered via tail vein injection to mice and gene expression determined after 5 hours. Female CD-1 mice, 13-15 g, were purchased from Charles River Inc. Forty microgram of pCILuc complexed with GC lipids or GC lipid:Chol dispersion as indicated weight ratios. After 5 h, mice were sacrificed and organs were collected. Organs were homogenized in 0.5 ml of lysis buffer and 20 μl of supernatant was used for luciferase assay. Luciferase activity was represented as a mean of relative light unit (RLU) of four mice. The lipids were either used alone or combined with cholesterol and complexed with a luciferase reporter gene plasmid by a standard procedure at a range of weight and charge ratios. For the in vivo screen, 40 μg of pCILuc was complexed with the formulation and injected into the mice.
All compounds were evaluated for in vivo activity. Two critical factors were examined, formulation with or without cholesterol and the ratio of cationic lipid to DNA. Cholesterol was tested at 1:1 mole ratio of lipid:chol. The studies were performed with a dose of 40 μg of pCILuc complexed with cationic lipid or lipid: Chol (1:1 mole ratio) injected i.v. into CD-1 mice and then luciferase activity in different organs determined 5 h later. The first evaluation included all of 14 GC-lipids at weight ratios of 2 and 10 (GC lipid to DNA). It was performed by four separated experiments. Each time cationic liposome DOTAP:Chol was used as a standard control.
Measurements were repeated with lipids GC-030, GC-034 and GC-029 at wider weight ratios than the first experiment. Luciferase activity is represented as a mean of relative light unit (RLU) of four mice. WR means weight ratio of GC lipids to DNA. The transfection activity was represented by luciferase activity RLU/organ. […] The transfection activity increased with the increased weight ratio (GC lipids to DNA). Inclusion of cholesterol can change the biodistribution of gene expression in the different organs examined. […] However this function of cholesterol was not seen with GC-034.

SMILES strings stand for the structures.

For the compound `CC(C)CCC[C@@H](C)[C@H]1CC[C@H]2[C@@H]3CC=C4C[C@@H](OC(=O)NCCNC(=O)[C@@H](N)CCCN)CC[C@]4(C)[C@H]3CC[C@]12C` [GC-003], where the note is “WR 2”, the “Luciferase RLU/20 μl lysate heart” value was 37 RLU/20 μl lysate, the “Luciferase RLU/20 μl lysate kidney” value was 38 RLU/20 μl lysate, the “Luciferase RLU/20 μl lysate liver” value turned out to be 33 RLU/20 μl lysate and the “Luciferase RLU/20 μl lysate lung” value was determined as 37 RLU/20 μl lysate. Under “WR 10”, the “Luciferase RLU/20 μl lysate heart” value came out at 39 RLU/20 μl lysate, the “Luciferase RLU/20 μl lysate kidney” value is 40 RLU/20 μl lysate, the “Luciferase RLU/20 μl lysate liver” value is 73 RLU/20 μl lysate and the “Luciferase RLU/20 μl lysate lung” value came to 69 RLU/20 μl lysate. Also, for the setting “WR 10, spleen”, the “Luciferase RLU/20 μl lysate spleen” value was determined as 65 RLU/20 μl lysate. The “Luciferase RLU/20 μl lysate spleen” value (WR (lipid to DNA) 2, spleen) was found to be 36 RLU/20 μl lysate.
Regarding `CCCCCCCCCCCCCCCCCCN(CCCCCCCCCCCCCCCCCC)C(=O)CNC(=O)[C@H](CCCN(CCCN)CCCN)N(CCCN)CCCN.O=C(O)C(F)(F)F.O=C(O)C(F)(F)F.O=C(O)C(F)(F)F.O=C(O)C(F)(F)F.O=C(O)C(F)(F)F.O=C(O)C(F)(F)F` [GC-016], for the setting “WR 2”, the “Luciferase RLU/20 μl lysate heart” value amounted to 44 RLU/20 μl lysate, the “Luciferase RLU/20 μl lysate kidney” value turned out to be 41 RLU/20 μl lysate, the “Luciferase RLU/20 μl lysate liver” value was determined as 38 RLU/20 μl lysate and the “Luciferase RLU/20 μl lysate lung” value is recorded as 45 RLU/20 μl lysate. Also, where the note is “WR 10”, the “Luciferase RLU/20 μl lysate heart” value was 40 RLU/20 μl lysate, the “Luciferase RLU/20 μl lysate kidney” value is reported as 40 RLU/20 μl lysate, the “Luciferase RLU/20 μl lysate liver” value stood at 95 RLU/20 μl lysate and the “Luciferase RLU/20 μl lysate lung” value is listed as 67 RLU/20 μl lysate. The “Luciferase RLU/20 μl lysate spleen” value (WR 10, spleen) is 230 RLU/20 μl lysate. Also, under “WR (lipid to DNA) 2, spleen”, the “Luciferase RLU/20 μl lysate spleen” value was 40 RLU/20 μl lysate.
Take `CCCCCCCCCCCCCCCCCCN(CCCCCCCCCCCCCCCCCC)C(=O)[C@H](CSSC[C@H](NC(=O)[C@@H](N)CCCN)C(=O)N(CCCCCCCCCCCCCCCCCC)CCCCCCCCCCCCCCCCCC)NC(=O)[C@@H](N)CCCN.O=C(O)C(F)(F)F.O=C(O)C(F)(F)F.O=C(O)C(F)(F)F.O=C(O)C(F)(F)F` [GC-025]: for the setting “WR 2”, the “Luciferase RLU/20 μl lysate heart” value came out at 33 RLU/20 μl lysate, the “Luciferase RLU/20 μl lysate kidney” value was 25 RLU/20 μl lysate, the “Luciferase RLU/20 μl lysate liver” value is 38 RLU/20 μl lysate and the “Luciferase RLU/20 μl lysate lung” value was found to be 40 RLU/20 μl lysate. Besides, under “WR 10”, the “Luciferase RLU/20 μl lysate heart” value worked out at 27 RLU/20 μl lysate, the “Luciferase RLU/20 μl lysate kidney” value was 28 RLU/20 μl lysate, the “Luciferase RLU/20 μl lysate liver” value amounted to 27 RLU/20 μl lysate and the “Luciferase RLU/20 μl lysate lung” value was found to be 30 RLU/20 μl lysate. Where the note is “WR 10, spleen”, the “Luciferase RLU/20 μl lysate spleen” value is recorded as 32 RLU/20 μl lysate. Besides, where the note is “WR (lipid to DNA) 2, spleen”, the “Luciferase RLU/20 μl lysate spleen” value was 46 RLU/20 μl lysate.
`CCCCCCCCCCCCCCCCCCN(CCCCCCCCCCCCCCCCCC)C(=O)C(CSSCC(NC(=O)C(CCCNCCCN)NCCCN)C(=O)N(CCCCCCCCCCCCCCCCCC)CCCCCCCCCCCCCCCCCC)NC(=O)C(CCCNCCCN)NCCCN.O=C(O)C(F)(F)F.O=C(O)C(F)(F)F.O=C(O)C(F)(F)F.O=C(O)C(F)(F)F.O=C(O)C(F)(F)F.O=C(O)C(F)(F)F.O=C(O)C(F)(F)F.O=C(O)C(F)(F)F` (stereo not drawn) [GC-026]: under “WR 2”, the “Luciferase RLU/20 μl lysate heart” value worked out at 42 RLU/20 μl lysate, the “Luciferase RLU/20 μl lysate kidney” value is given as 41 RLU/20 μl lysate, the “Luciferase RLU/20 μl lysate liver” value is 39 RLU/20 μl lysate and the “Luciferase RLU/20 μl lysate lung” value worked out at 40 RLU/20 μl lysate. Besides, for the setting “WR 10”, the “Luciferase RLU/20 μl lysate heart” value turned out to be 0 RLU/20 μl lysate, the “Luciferase RLU/20 μl lysate kidney” value was 0 RLU/20 μl lysate, the “Luciferase RLU/20 μl lysate liver” value is 0 RLU/20 μl lysate and the “Luciferase RLU/20 μl lysate lung” value stood at 0 RLU/20 μl lysate. In addition, for the setting “WR 10, spleen”, the “Luciferase RLU/20 μl lysate spleen” value amounted to 0 RLU/20 μl lysate. Also, under “WR (lipid to DNA) 2, spleen”, the “Luciferase RLU/20 μl lysate spleen” value is 40 RLU/20 μl lysate.
Regarding `CCCCCCCCCCCCCCCCCC(CCCCCCCCCCCCCCCCC)OC(=O)NCCNC(=O)[C@H](CCCNCCCN)NCCCN.O=C(O)C(F)(F)F.O=C(O)C(F)(F)F.O=C(O)C(F)(F)F.O=C(O)C(F)(F)F` [GC-029], under “WR 2”, the “Luciferase RLU/20 μl lysate heart” value came out at 42 RLU/20 μl lysate, the Luciferase activity heart is on record as 933 RLU/organ, the “Luciferase RLU/20 μl lysate kidney” value worked out at 34 RLU/20 μl lysate and the Luciferase activity kidney is on record as 1,000 RLU/organ. For the setting “WR 2”, the “Luciferase RLU/20 μl lysate liver” value is 31 RLU/20 μl lysate, the Luciferase activity liver stood at 825 RLU/organ, the “Luciferase RLU/20 μl lysate lung” value amounted to 41 RLU/20 μl lysate and the Luciferase activity lung was 967 RLU/organ. Also, the Luciferase activity spleen (WR 2, spleen) was found to be 908 RLU/organ. Where the note is “WR 10”, the “Luciferase RLU/20 μl lysate heart” value was 34 RLU/20 μl lysate, the Luciferase activity heart stood at 858 RLU/organ, the “Luciferase RLU/20 μl lysate kidney” value is 42 RLU/20 μl lysate and the Luciferase activity kidney was found to be 808 RLU/organ. Also, for the setting “WR 10”, the “Luciferase RLU/20 μl lysate liver” value is 65 RLU/20 μl lysate, the Luciferase activity liver is 1,408 RLU/organ, the “Luciferase RLU/20 μl lysate lung” value was 72 RLU/20 μl lysate and the Luciferase activity lung is recorded as 1,017 RLU/organ. Under “WR 10, spleen”, the “Luciferase RLU/20 μl lysate spleen” value was 196 RLU/20 μl lysate and the Luciferase activity spleen is given as 1,992 RLU/organ. Besides, the “Luciferase RLU/20 μl lysate spleen” value (WR (lipid to DNA) 2, spleen) was 31 RLU/20 μl lysate.
`CCCCCCCCCCCCCCCCCC(CCCCCCCCCCCCCCCCC)OC(=O)NCCNC(=O)[C@@H](N)CCCN.O=C(O)C(F)(F)F.O=C(O)C(F)(F)F` [GC-030]: the Luciferase activity heart reads like this: (WR 1) 1,675 RLU/organ; (WR 2) 1,367 RLU/organ; (WR 6) 817 RLU/organ; (WR 10) 3,450 RLU/organ; (WR 20) 4,783 RLU/organ. Further, the Luciferase activity kidney (WR 1) is 1,392 RLU/organ; the Luciferase activity kidney (WR 2) is reported as 1,458 RLU/organ; the Luciferase activity kidney (WR 6) is given as 792 RLU/organ; the Luciferase activity kidney (WR 10) is given as 1,367 RLU/organ; the Luciferase activity kidney (WR 20) is recorded as 17,583 RLU/organ. Further, the Luciferase activity liver by setting is: (WR 1) 3,642 RLU/organ; (WR 2) 3,417 RLU/organ; (WR 6) 1,550 RLU/organ; (WR 10) 114,425 RLU/organ; (WR 20) 1,003,125 RLU/organ. Also, the Luciferase activity lung (WR 1) is reported as 3,308 RLU/organ; the Luciferase activity lung (WR 2) is reported as 1,600 RLU/organ; the Luciferase activity lung (WR 6) is listed as 8,808 RLU/organ; the Luciferase activity lung (WR 10) is listed as 35,117 RLU/organ; the Luciferase activity lung (WR 20) is on record as 689,475 RLU/organ. The Luciferase activity spleen by setting is: (WR 1, spleen) 23,308 RLU/organ; (WR 2, spleen) 73,442 RLU/organ; (WR 6, spleen) 38,058 RLU/organ; (WR 10, spleen) 446,650 RLU/organ; (WR 20, spleen) 2,479,217 RLU/organ. In addition, the “Luciferase RLU/20 μl lysate heart” value is, setting by setting: (WR 2) 48 RLU/20 μl lysate; (WR 10) 67 RLU/20 μl lysate. In addition, the “Luciferase RLU/20 μl lysate kidney” value is on record as 51 RLU/20 μl lysate (WR 2) and 105 RLU/20 μl lysate (WR 10). Moreover, the “Luciferase RLU/20 μl lysate liver” value is 70 RLU/20 μl lysate (WR 2) and 1,093 RLU/20 μl lysate (WR 10). Moreover, the “Luciferase RLU/20 μl lysate lung” value runs as follows: (WR 2) 88 RLU/20 μl lysate; (WR 10) 1,396 RLU/20 μl lysate. The “Luciferase RLU/20 μl lysate spleen” value is reported as 5,305 RLU/20 μl lysate (WR 10, spleen) and 3,692 RLU/20 μl lysate (WR (lipid to DNA) 2, spleen). For the setting “weight ratio 20, spleen”, the “luciferase activity in spleen relative to DOTAP:Chol standard” value worked out at 36 fold.

(Values after patent US20030166601A1, “Novel colloid synthetic vectors for gene therapy” (priority 1999, published 2003).)
